From patent US8119642B2, “Structurally rigid dopamine D3 receptor selective ligands and process for making them” (The United States of America as represented by the …, priority 2002, dated 2012)
Like-named read-outs stand apart in the source and are kept apart here.

What was measured:
[1] = biological target: T1, human D3 dopamine receptor (Homo sapiens, UniProt P35462); assay: Binding in cloned human D3 receptors in HEK cells; conditions: for D2/D3: ratio of D2 to D3 binding values
T1 construct: expressed in transfected cells
T1 sequence (P35462 whole entry): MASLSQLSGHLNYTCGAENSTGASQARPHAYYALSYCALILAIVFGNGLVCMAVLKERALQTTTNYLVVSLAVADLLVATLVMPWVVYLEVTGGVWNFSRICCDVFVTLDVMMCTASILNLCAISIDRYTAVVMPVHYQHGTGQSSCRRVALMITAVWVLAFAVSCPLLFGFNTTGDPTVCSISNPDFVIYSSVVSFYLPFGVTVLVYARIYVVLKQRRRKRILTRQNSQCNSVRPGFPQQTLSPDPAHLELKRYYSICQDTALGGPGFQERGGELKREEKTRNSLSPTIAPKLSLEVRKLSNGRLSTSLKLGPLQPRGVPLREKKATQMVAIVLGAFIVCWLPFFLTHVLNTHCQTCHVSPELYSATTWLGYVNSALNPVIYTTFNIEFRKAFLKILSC
Description: (§1) Human dopamine D2-long (“D2”) and D3 ([…]) receptors were expressed in HEK cells. In brief, stably transfected HEK cells expressing the human D2-long and the D3 dopamine receptor were developed using the pIRES bicistronic expression vector (CLONTECH; Palo Alto, Calif.). […] For comparison, human dopamine D4 (“D4”) receptors were obtained from HEK 293 cells stably transfected with a PCR product o'f a human cDNA coding for the D4.4 form of the human D4 dopamine receptor.

[2] = biological target: T2, D4.4 form of the human D4 dopamine receptor (Homo sapiens, UniProt P21917); assay: Binding in cloned human D4 receptors in HEK cells; conditions: cloned human D4.4 receptors in HEK 293 cells
T2 construct: expressed in transfected cells
T2 sequence (P21917 1-419): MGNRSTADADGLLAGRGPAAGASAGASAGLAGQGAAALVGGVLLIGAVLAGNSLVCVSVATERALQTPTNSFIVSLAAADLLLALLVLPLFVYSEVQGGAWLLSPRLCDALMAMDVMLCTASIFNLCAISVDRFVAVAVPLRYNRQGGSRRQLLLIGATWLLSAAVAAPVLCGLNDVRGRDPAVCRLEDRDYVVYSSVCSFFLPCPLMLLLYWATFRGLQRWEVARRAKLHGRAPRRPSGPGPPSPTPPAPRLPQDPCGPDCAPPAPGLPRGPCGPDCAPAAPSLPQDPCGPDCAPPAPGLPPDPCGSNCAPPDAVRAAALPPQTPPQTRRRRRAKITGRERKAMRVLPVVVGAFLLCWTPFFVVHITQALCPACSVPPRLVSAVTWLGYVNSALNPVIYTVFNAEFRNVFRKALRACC
Protocol: Human dopamine D2-long (“D2”) and D3 ([…]) receptors were expressed in HEK cells. In brief, stably transfected HEK cells expressing the human D2-long and the D3 dopamine receptor were developed using the pIRES bicistronic expression vector (CLONTECH; Palo Alto, Calif.). The level of expression of D2 or D3 receptors was determined to be greater than 2,000 fmoles/mg protein. For comparison, human dopamine D4 (“D4”) receptors were obtained from HEK 293 cells stably transfected with a PCR product o'f a human cDNA coding for the D4.4 form of the human D4 dopamine receptor. The density of binding sites is approximately 1000 fmol/mg protein.
Methods for performing in vitro dopamine receptor binding studies are described in Huang et al. J. Med. Chem. 44:1815-1826 (2001) and Luedtke et al. Synapse 38:438-439 (2000), the contents of which are hereby incorporated by reference. […] Therefore, ^125I-IABN appears to be a high affinity, selective antagonist at D2-like dopamine receptors.

[3] = biological target: T3, human D2-long dopamine receptor (Homo sapiens, UniProt P14416); assay: Binding in cloned human D2 receptors in HEK cells; conditions: 125I-IABN
T3 construct: expressed in transfected cells
T3 sequence (P14416 whole entry): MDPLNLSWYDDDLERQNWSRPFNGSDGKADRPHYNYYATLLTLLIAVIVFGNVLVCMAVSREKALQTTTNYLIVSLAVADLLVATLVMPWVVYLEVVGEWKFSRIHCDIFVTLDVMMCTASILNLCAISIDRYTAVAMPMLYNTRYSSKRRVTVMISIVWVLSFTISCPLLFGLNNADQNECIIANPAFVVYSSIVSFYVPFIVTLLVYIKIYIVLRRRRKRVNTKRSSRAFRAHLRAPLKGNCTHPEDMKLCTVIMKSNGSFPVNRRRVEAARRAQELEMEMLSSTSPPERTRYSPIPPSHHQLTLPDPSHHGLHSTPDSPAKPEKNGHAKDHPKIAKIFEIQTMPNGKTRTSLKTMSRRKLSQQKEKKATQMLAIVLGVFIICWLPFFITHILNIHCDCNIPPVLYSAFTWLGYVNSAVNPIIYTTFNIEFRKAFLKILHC
Description: as §1

hD3 = biological target: T4, hD3 (Homo sapiens, UniProt P35462); assay: D3 functional assay, stimulation of mitogenesis in CHO cells (agonist assay); type: cell-based; conditions: for EC50: [3H]thymidine, read-out: Agonist EC50 (nM) ± S.E.M.
T4 construct: expressed in transfected cells; host or cells: CHOp- cells, kept under G418
T4 sequence (P35462 whole entry): as the sequence (P35462 whole entry) above
Protocol: The cells were incubated at 37° C. in α-MEM with 10% FBS, 0.05% penicillin-streptomycin, and 200 μg/mL of G418. After 48 hours, the cells were rinsed twice with serum-free α-MEM and incubated for 24 hours at 37° C. In the functional assay for agonism, the medium was removed and replaced with 90 μl of serum-free α-MEM and 10 μl of test compound in sterile water; in the antagonist assay, the test compound was diluted in sterile water plus 30 nM quinpirole. After another 24-hour incubation at 37° C., 0.25 μCi of [^3H]thymidine was added to each well and the plates were further incubated for 2 hours at 37° C. The cells were then trypsinized, and the plates were filtered and counted as usual in the art. Quinpirole was run on every plate as an internal standard.

sigma σ1 binding sites = conditions: cited from earlier work
D1a dopamine receptors = D1a dopamine receptors (Homo sapiens, UniProt P21728); conditions: cited from earlier work
D1a dopamine receptors, sequence (P21728 whole entry): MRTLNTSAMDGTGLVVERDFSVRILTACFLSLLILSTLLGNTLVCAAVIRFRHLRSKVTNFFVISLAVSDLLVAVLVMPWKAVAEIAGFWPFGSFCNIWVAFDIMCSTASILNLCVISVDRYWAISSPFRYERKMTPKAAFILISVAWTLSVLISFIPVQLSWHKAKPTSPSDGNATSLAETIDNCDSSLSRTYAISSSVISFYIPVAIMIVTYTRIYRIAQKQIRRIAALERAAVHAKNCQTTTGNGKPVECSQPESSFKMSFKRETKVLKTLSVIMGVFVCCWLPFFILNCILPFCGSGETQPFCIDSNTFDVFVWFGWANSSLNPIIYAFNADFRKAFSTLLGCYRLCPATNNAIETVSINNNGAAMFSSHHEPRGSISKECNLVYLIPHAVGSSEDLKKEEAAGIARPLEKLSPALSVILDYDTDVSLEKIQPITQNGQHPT

sigma σ2 binding sites = conditions: cited from earlier work
[4] = biological target: T5, human D4.4 dopamine receptors (Homo sapiens, UniProt P21917); conditions: HEK 293 cells; cited from earlier work
T5 construct: expressed in transfected cells; host or cells: HEK 293 cells
T5 sequence (P21917 1-419): T2 sequence (P21917 1-419)

[5] = cloned human D3 receptors in HEK cells, 125I-IABN, read-out: D3 binding data

Row | SMILES | Ki [1, 5] | Ki [3] | other results
1 | O=C(NC/C=C/CN1CCN(c2cccc(Cl)c2Cl)CC1)c1ccc([N+](=O)[O-])cc1 [EEC 027] | 0.6 ± 0.2 nM | – | Ki [2]: 461 ± 187 nM
2 | O=C(NC/C=C/CN1CCN(c2cccc(Cl)c2Cl)CC1)c1ccc2c(c1)Cc1ccccc1-2 [JJC 2-071] | 3.4 ± 2.9 nM | 186 ± 8 nM | % Max Stim. ± S.E.M. (hD3): 44.1 ± 0.9%
3 | O=C(NCC=CCN1CCN(c2cccc(Cl)c2Cl)CC1)c1ccc(I)cc1 [EEC 017, N-{4-[4-(2,3-Dichloro-phenyl)-piperazin-1-yl]-but-2-enyl}-4-iodo-benzamide] | 4.2 ± 1.5 nM | 35.4 ± 7.6 nM | D2/D3 [1]: 8
4 | COc1ccc(C(=O)NC/C=C/CN2CCN(c3cccc(Cl)c3Cl)CC2)cc1 [EEC 067] | – | 34.7 ± 11.4 nM | –
5 | O=C(NCC#CCN1CCN(c2cccc(Cl)c2Cl)CC1)c1cccc2c1-c1ccccc1C2 [JJC 2-077] | 318 ± 32 nM | 592 ± 27 nM | –
6 | COc1cc([125I])cc(C(=O)NC2CC3CCCC(C2)N3Cc2ccccc2)c1OC (stereo not drawn) [IABN] | – | – | affinity for sigma σ1 binding sites (sigma σ1 binding sites): low affinity; affinity for D1a dopamine receptors (D1a dopamine receptors): low affinity; affinity for sigma σ2 binding sites (sigma σ2 binding sites): low affinity; fold lower affinity at human D4.4 than at D2 and D3 receptors [4]: 7- to 10 fold
7 | O=C(NC/C=C\CN1CCN(c2cccc(Cl)c2Cl)CC1)c1ccc2c(c1)Cc1ccccc1-2 [JJC 2-085] | 3.8 ± 1.4 nM | 61.1 ± 19.2 nM | –
8 | COc1cccc(C(=O)NC/C=C/CN2CCN(c3cccc(Cl)c3Cl)CC2)c1 [EEC 069] | 4 ± 1.6 nM | 56.9 ± 19.1 nM | –
9 | O=C(NC/C=C/CN1CCN(c2cccc(Cl)c2Cl)CC1)c1cccc(I)c1 [EEC 019] | 3.9 ± 1.2 nM | – | –
10 | O=C(NC/C=C/CN1CCN(c2cccc(Cl)c2Cl)CC1)c1ccccc1 [JJC 2-068] | 0.6 ± 0.1 nM | – | EC50 (hD3): > 10000 nM
11 | O=C(NC/C=C/CN1CCN(c2cccc(Cl)c2Cl)CC1)c1cccc(Cl)c1 [EEC 063] | 2.1 ± 1.1 nM | – | –
12 | O=C(NC/C=C\CN1CCN(c2cccc(Cl)c2Cl)CC1)c1ccccc1 [JJC 2-083] | – | – | EC50 (hD3): > 10000 nM
13 | O=C(NCC#CCN1CCN(c2cccc(Cl)c2Cl)CC1)c1ccccc1 [JJC 2-062] | 127 ± 10 nM | 491 ± 108 nM | –
14 | O=C(NC/C=C/CN1CCN(c2cccc(Cl)c2Cl)CC1)c1cc2ccccc2s1 [PG01030] | – | – | Ki [1]: 1.3 ± 0.5 nM
15 | O=C(NCC#CCN1CCN(c2cccc(Cl)c2Cl)CC1)c1ccc2c(c1)Cc1ccccc1-2 [JJC 2-078] | 41.5 ± 5.4 nM | 1650 ± 692 nM | –

Second part, led by results:

Row | Ki [1, 5] | Ki [3] | SMILES | other results
16 | – | 10.5 ± 4.5 nM | O=C(NC/C=C/CN1CCN(c2cccc(Cl)c2Cl)CC1)c1ccccc1[N+](=O)[O-] [PG01029] | –
17 | – | 13.1 ± 5.5 nM | O=C(NC/C=C/CN1CCN(c2cccc(Cl)c2Cl)CC1)c1ccccc1Cl [PG01009] | –
18 | – | 31.2 ± 3.1 nM | O=C(NC/C=C/CN1CCN(c2cccc(Cl)c2Cl)CC1)c1ccccn1 [PG01034] | Ki [1]: 2 ± 0.6 nM
19 | – | 11.2 ± 5.6 nM | O=C(NC/C=C/CN1CCN(c2cccc(Cl)c2Cl)CC1)c1cccnc1 [PG01022] | –
20 | 2.7 ± 0.8 nM | 25.6 ± 6.8 nM | Nc1ccccc1C(=O)NC/C=C/CN1CCN(c2cccc(Cl)c2Cl)CC1 [PG01038] | –
21 | – | 101 ± 16.9 nM | O=C(NC/C=C/CN1CCN(c2cccc(Cl)c2Cl)CC1)c1cc2ccccc2o1 [PG01055] | –
22 | 1.6 ± 1 nM | 25 ± 10.8 nM | O=C(NC/C=C/CN1CCN(c2cccc(Cl)c2Cl)CC1)c1ccc(Cl)cc1 [PG01007] | –
23 | – | 8.1 ± 2.7 nM | O=C(NC/C=C/CN1CCN(c2cccc(Cl)c2Cl)CC1)c1ccc(F)cc1 [PG01012] | –
24 | – | 5.3 ± 3 nM | COc1ccccc1C(=O)NC/C=C/CN1CCN(c2cccc(Cl)c2Cl)CC1 [PG01027] | –
25 | – | 7.3 ± 3.2 nM | O=C(NC/C=C/CN1CCN(c2cccc(Cl)c2Cl)CC1)c1ccccc1O [PG01025] | –
26 | – | 81.9 ± 20.7 nM | O=C(NC/C=C/CN1CCN(c2cccc(Cl)c2Cl)CC1)c1ccc(-c2ccccn2)cc1 [PG01037] | Ki [2]: 505 ± 62.5 nM
27 | – | 13.7 ± 4.8 nM | O=C(NCC=CCN1CCN(c2cccc(Cl)c2Cl)CC1)c1ccc(O)cc1 [PG01015, N-{4-[4-(2,3-Dichloro-phenyl)-piperazin-1-yl]-but-2-enyl}-4-hydroxy-benzamide] | Ki [1]: 0.4 nM; D2/D3 [1]: 34; Ki [2]: 356 ± 26.5 nM
28 | – | 12.7 ± 4.1 nM | O=C(NC/C=C/CN1CCN(c2cccc(Cl)c2Cl)CC1)c1ccccc1I [PG01018] | –
29 | – | 63.3 ± 16.5 nM | O=C(NC/C=C/CN1CCN(c2cccc(Cl)c2Cl)CC1)c1ccc(-c2cccnc2)cc1 [PG01041] | Ki [2]: 486 ± 157 nM
30 | – | 70 ± 7.6 nM | O=C(NC/C=C/CN1CCN(c2cccc(Cl)c2Cl)CC1)c1cnc2ccccc2n1 [PG01020] | Ki [2]: 1110 ± 555 nM
31 | – | 17.2 ± 4.2 nM | O=C(NC/C=C/CN1CCN(c2cccc(Cl)c2Cl)CC1)c1ccncc1 [PG01035] | –
